Source: ChEMBL document CHEMBL5058564, “EUbOPEN Chemogenomics Library 2 (Incucyte)” (2022)

Columns and labels:
Assay type in all cases: toxicity, cell-based
Fibroblast = assay: Incucyte cell viability with human fibroblast; details: 10 µM, compound concentration 10 uM
HEK-293T = assay: Incucyte cell viability with HEK293T; details: human, 10 µM, compound concentration 10 uM
U2OS = assay: Incucyte cell viability with U2OS; details: human, 10 µM, compound concentration 10 uM
[1] = 6 h, replicate number 1, timepoint 6 hours
[2] = 6 h, replicate number 2, timepoint 6 hours
[3] = 12 h, replicate number 1, timepoint 12 hours
[4] = 12 h, replicate number 2, timepoint 12 hours
[5] = 18 h, replicate number 1, timepoint 18 hours
[6] = 18 h, replicate number 2, timepoint 18 hours
[7] = 24 h, replicate number 1, timepoint 24 hours
[8] = 24 h, replicate number 2, timepoint 24 hours
[9] = 0 h, replicate number 1, timepoint 0 hours
[10] = 0 h, replicate number 2, timepoint 0 hours
Also: unitless GR value; below 1 slowed growth and below 0 cell loss.

SMILES	Growth Rate (Fibroblast; [1])	Growth Rate (Fibroblast; [5])	Growth Rate (Fibroblast; [7])	Growth Rate (HEK-293T; [9])	Growth Rate (HEK-293T; [10])	Growth Rate (HEK-293T; [3])	Growth Rate (HEK-293T; [4])	Growth Rate (HEK-293T; [5])	Growth Rate (HEK-293T; [6])	Growth Rate (HEK-293T; [7])	Growth Rate (U2OS; [10])	Growth Rate (U2OS; [1])	Growth Rate (U2OS; [4])	Growth Rate (U2OS; [6])	Growth Rate (U2OS; [8])	Growth Rate (Fibroblast; [10])	Growth Rate (U2OS; [9])	Growth Rate (HEK-293T; [8])	Growth Rate (U2OS; [5])	Growth Rate (U2OS; [7])	further results
CS(=O)(=O)c1ccc(C(=O)Nc2ccc(Cl)c(-c3ccccn3)c2)c(Cl)c1 [VISMODEGIB]	0.27	0.67	0.29	1	0.86	0.8	0.84	0.81	0.92	0.83	-1	0.94	0.78	0.84	0.86						Growth Rate (Fibroblast; [2]): 0.96; Growth Rate (Fibroblast; [3]): 0.7; Growth Rate (Fibroblast; [4]): 0.84; Growth Rate (Fibroblast; [6]): 0.59; Growth Rate (Fibroblast; [8]): 0.73; Growth Rate (HEK-293T; [1]): 0.99; Growth Rate (HEK-293T; [2]): 0.75; Growth Rate (U2OS; [2]): 0.8
CSc1nc(NC2CCCC2)c([N+](=O)[O-])c(NC2CCCC2)n1 [GS-39783]	-0.14	0.18	0.19	0.5	0.78	0.97	0.85		0.92		-1		0.75	0.75	0.92	0.9	0.05				Growth Rate (Fibroblast; [2]): 0.69; Growth Rate (Fibroblast; [3]): -0.14; Growth Rate (U2OS; [2]): 0.83
CCOC(=O)Nc1cc(-c2ccc(C)c(NS(C)(=O)=O)c2)nn2c(C)nnc12	-0.16			0.65	0.66	0.95		0.79	0.98	0.46		0.15	0.95	0.95	0.84	0.22	0.25	0.76	0.82	0.83	Growth Rate (Fibroblast; [8]): 0.95; Growth Rate (U2OS; [2]): 0.59; Growth Rate (U2OS; [3]): 0.56
COc1ccc2cc(S(=O)(=O)N[C@H](CC(=O)N[C@H](Cc3ccc(CN4[C@H](C)CCC[C@@H]4C)cc3)C(=O)N(C)C(C)C)c3ccc4c(c3)OCO4)ccc2c1.Cl	-0.65	-0.65	-0.57			0.01	0.35	0.02	0.41	0.01	-0.35	0.84	0.61	0.57	0.53	-0.08		0.42	0.67	0.69	Growth Rate (Fibroblast; [2]): -0.35; Growth Rate (Fibroblast; [3]): -0.6; Growth Rate (Fibroblast; [4]): -0.1; Growth Rate (Fibroblast; [6]): -0.15; Growth Rate (Fibroblast; [8]): -0.02; Growth Rate (HEK-293T; [1]): -0.08; Growth Rate (U2OS; [3]): 0.63
O=C1COc2nccc(-c3ccccc3F)c2CN1Cc1cc(C(F)(F)F)cc(C(F)(F)F)c1	0.17	0.58	0.73				0.89	0.98	0.88				0.96	0.94	0.93		-0.7		0.97	0.88	Growth Rate (Fibroblast; [3]): 0.8; Growth Rate (HEK-293T; [2]): 0.77
OC[C@H]1O[C@@H](n2cnc3c(NC4CCCC4)ncnc32)[C@H](O)[C@@H]1O [N6-CYCLOPENTYLADENOSINE]				-0.12	-0.14	0.81	0.6	0.75	0.65	0.73		0.36	0.94	0.93	1	-0.09		0.66	0.53	0.71	Growth Rate (Fibroblast; [9]): 0.37; Growth Rate (Fibroblast; [8]): 0.92; Growth Rate (HEK-293T; [1]): 0.92; Growth Rate (HEK-293T; [2]): 0.12; Growth Rate (U2OS; [2]): 0.74; Growth Rate (U2OS; [3]): 0.69
O=c1nc2[nH]c3ccccc3nc-2c(=O)[nH]1 [ALLOXAZINE]	0.04				0.68	0.97		0.81		0.9	-1			0.95		0.73	0.16				Growth Rate (Fibroblast; [9]): -0.4
CN(C)[C@H]1CN(C2CCc3cccc(F)c32)C[C@@H]1c1ccc(N2CCN(S(C)(=O)=O)CC2)cc1 (some centres undefined)		0.68	0.75				0.71		0.89		-0.68	0.58	0.83	0.9	0.98		-0.44	0.8	0.87	0.97	Growth Rate (Fibroblast; [2]): 0.88; Growth Rate (HEK-293T; [2]): 0.35; Growth Rate (U2OS; [2]): 0.61; Growth Rate (U2OS; [3]): 0.63
CN(C(=O)/C=C/c1ccoc1)[C@@H]1CC[C@@]2(O)[C@H]3Cc4ccc(O)c5c4[C@@]2(CCN3CC2CC2)[C@H]1O5 [NALFURAFINE]				0.87	0.49		0.91				-0.09	0.82	1	0.88		0.55	0.56	0.91	0.68	0.77	
Nc1cnc(N2CCc3cc(S(=O)(=O)Nc4c(F)cc(Cl)cc4F)cc(N4CCCC4=O)c32)nc1 [TP-020n]			0.92	0.54	0.76	0.37	0.71	0.61	0.9	0.74		0.53				-0.22	-0.04	0.77	0.65	0.66	Growth Rate (Fibroblast; [9]): 0.01; Growth Rate (HEK-293T; [1]): 0.61; Growth Rate (U2OS; [3]): 0.72
